According to patent US9096499B2, “Compounds for treatment of cell proliferative diseases” (Board of Regents, The University of Texas System, priority 2003, dated 2015):

Assays:
U266 MM cells = experiment: MTT cell growth and survival assay, U266 MM cells; type: cell-based; conditions: 72 hours
Description: (§1) To determine the effect of AG and WP compounds on MM cell growth/survival, MM cells were incubated with the indicated concentration of AG or WP for 72 hours before cell growth and survival were estimated by MTT assay.
(§2) To determine the effect of AG and WP compounds on MM cell growth/survival MM cells were incubated with the indicated concentration of AG or WP for 72 hours before cell growth and survival were estimated by MTT assay.

OCI-My5 cells = experiment: Caspase activation and PARP cleavage in OCI-My5 cells; type: cell-based; conditions: 12.5 and 25 μM
Description: To determine whether AG1801 effects caspase activation in MM cells, OCI-My5 cells were treated as described above before cell lysates were examined for casapase activation and PARP cleavage. […] At 12.5 and 25 μM, AG490 was ineffective in caspase activation and PARP clevage in these cells.

Stat3 = experiment: IL-6 mediated Stat3 activation (p-Stat3 immunoblot) in MM cells; type: cell-based; set-up: key to P-Stat 3: (inhibition = ↓); (no effect) = —
Description: To examine the effect of newly synthesized AG and WP compounds on cytokine-mediated Stat activation, multiple myeloma (MM-1) cells were pretreated with AG490 or AG1801 at 2.5, 12, and 25 μM concentrations (for 2 hr) before stimulating cells with IL-6 or IFN-α for 10 min. Stat3 and Stat1 expression and activation were examined by immunoblotting.
(§3) To determine the effect of compounds on both Stat3 activation and c-myc protein expression MM-1, OCI-My5 and U266 cells were incubated with 25 μM of AG1801, AG490, WP1038, WP1039, WP1051, or WP1052 for 2 hours before cells were stimulated with 2 ng/ml IL-6 for 10 min. Cell lysates were prepared and immunoblotted for p-Stat3, Stat3, c-myc and actin (as a control). Both Stat3 activation and c-myc expression were effected by WP and AG compounds.

[1] = test system: MM colonies from bone marrow aspirates of MM patients; experiment: Primary MM colony formation in methyl-cellulose; type: cell-based, human; conditions: 25 μM, 7 to 10 days
Description: To determine whether these compounds effect primary MM colony growth bone marrow aspirates from MM patients were partially-purified by magnetic bead separation and analyzed for immunoglobulin heavy-chain gene rearrangement by PCR. Cells were grown as colonies in methyl-cellulose in the presence or absence of AG compound as noted for 7 to 10 days. Control colonies were examined for Ig heavy chain gene rearrangement to confirm the clonal nature of the population.

[2] = literature; cited from earlier work
c-myc = c-myc protein expression by immunoblot in MM cells; type: cell-based; set-up: key to C-Myc: (inhibition = ↓); (no effect) = —
Description: as §3, with “control).” for “control). Both Stat3 activation and c-myc expression were effected by WP and AG compounds.”
To determine the temporal effects and mechanism of action of AG490 and AG1801 action on c-myc expression in MM cells, MM-1 cells were incubated with 0, 25, or 50 μM of AG490 or AG1801 and harvested at 30, 60, or 120 min. Lysates were immunoblotted for c-myc or actin as a protein loading control. […] Semi-quantitative PCR was used to measure changes in c-myc mRNA extracted from cells treated for 30 min with AG1801 at 25 μM. GAPDH PCR was used as a control.
These compounds were evaluated for their signal inhibitory and anti-proliferative/apoptotic properties on multiple myeloma, lymphoma and chronic myelogenous leukemia cell lines. WP1015, WP1034, AG1801, and AG490 were tested across a range of concentrations (6,12, and 25 μM) for their ability to inhibit c-myc expression using immunoblots.
These immunoblots tested a range of concentrations (1.56-25 μM for WP compounds) and used β-actin as a control.

MM-1 MM cells = experiment: MTT cell growth and survival assay, MM-1 MM cells; type: cell-based; conditions: 72 hours
Description: as §1, §2

Jak2/Stat3 signaling = conditions: literature; cited from earlier work
OCI MM cells = experiment: MTT cell growth and survival assay, OCI MM cells; type: cell-based; conditions: 72 hours
Description: as §1, §2

For `N#C/C(=C\c1ccc(O)c(O)c1)C(=O)NCc1ccccc1` [AG 490, reference compound], the “Growth and survival of U266 cells (in words)” value (U266 MM cells; MTT, FIG. 2C/3C) was “effective in reducing the growth and survival”, the IC50 (U266 MM cells; Homo sapiens, U-266, MTT assay) was > 12.5 µM and the “Caspase activation (caspase 3 and caspase 8)” value (OCI-My5 cells) was “ineffective”. The PARP cleavage (OCI-My5 cells) was “ineffective”, the “Suppression of IL-6 signaling (Stat3 activation)” value (Stat3; MM-1 cells, 2 hr pretreatment, 12 and 25 μM, IL-6 10 min) was “inactive” and the “P-Stat 3” value (Stat3; Stat3 inhibition, immunoblot) was “↓”. The “P-Stat 3: concentration at which inhibition is seen” value (Stat3; immunoblot) was > 25 µM, the “Inhibition of MM colony formation” value [1] was “less effective” and the “Activity in animal studies” value [2] was “limited activity”. The “Inhibition of c-myc protein expression” value (c-myc; 6, 12, 25 μM, AG490 up to 50 μM) was “little or no effect”, the “c-myc expression, temporal effects” value (c-myc; MM-1 cells, 25 and 50 μM, 30, 60, 120 min) was “completely unable to affect c-myc expression” and the C-Myc (c-myc; c-myc downregulation, immunoblot) was “↓”. The IC50 (MM-1 MM cells; MTT assay, read-out: IC50 (μM) MM1) was > 12.5 µM, the “Growth and survival of MM1 cells (in words)” value (MM-1 MM cells; MTT, FIG. 2A/3A) was “effective in reducing the growth and survival” and the “Concentration needed to achieve inhibition of Jak2/Stat3 signaling and anti-tumor effects” value (Jak2/Stat3 signaling) was 50 to 100 µM. For the same compound, the IC50 (OCI MM cells; MTT assay) was > 12.5 µM and the “Growth and survival of OCI cells (in words)” value (OCI MM cells; MTT, FIG. 2B/3B) was “effective in reducing the growth and survival”.
